The assay addresses T1, human mPGES-1 (Homo sapiens, UniProt O14684).
T1 construct: made in house; host or cells: COS-1 cells (transient transfection; microsomal fraction used as enzyme)
T1 sequence (O14684 1-152): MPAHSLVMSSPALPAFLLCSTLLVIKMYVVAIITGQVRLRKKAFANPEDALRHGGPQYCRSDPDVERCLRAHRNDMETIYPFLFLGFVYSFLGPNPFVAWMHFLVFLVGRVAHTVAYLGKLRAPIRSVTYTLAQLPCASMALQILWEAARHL
The experiment in a line: Test for mPGES-1 inhibitory activity (microsomal enzyme, PGE2 EIA). The settings on record: microsomes of COS-1 cells transfected with human mPGES-1 cDNA; PGH2 1 μM; 4° C., 4 minutes; PGE2 by EIA; read-out: h mPGES1 IC50. The class given is biochemical. A digest of the protocol:
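IC50 values were derived from EIA-quantified PGE2 after a 4 min, 4 °C reaction with PGH2 at 1 μM final, stopped with ferric chloride/citric acid. Beforehand, compound (2% DMSO final) sat 15 min at 4 °C with human mPGES-1 microsomes from transiently transfected COS-1 cells. Buffer was sodium phosphate pH 7.2 containing 2.5 mM reduced glutathione and 1 mM EDTA.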
As usually defined, the IC50 is the concentration at which inhibition is half-maximal. In the case of `O=c1cc(C(F)(F)F)nc(-c2c(C(F)(F)F)ccc(CNC(=O)[C@H]3C[C@H](OCc4cc(Cl)ccc4F)C3)c2F)[nH]1` [Example 156, trans-3-[(5-chloro-2-fluorobenzyl)oxy]-N-{2-fluoro-3-[6-oxo-4-(trifluoromethyl)-1,6-dihydropyrimidin-2-yl]-4-(trifluoromethyl)benzyl}cyclobutane-1-carboxamide], the IC50 was below 1 nM.

As to `O=c1cc(C(F)(F)F)nc(-c2c(C(F)(F)F)ccc(CNC(=O)[C@H]3C[C@H](OCc4ccc(F)c(Cl)c4)C3)c2F)[nH]1` [Example 157, trans-3-[(3-chloro-4-fluorobenzyl)oxy]-N-{2-fluoro-3-[6-oxo-4-(trifluoromethyl)-1,6-dihydropyrimidin-2-yl]-4-(trifluoromethyl)benzyl}cyclobutane-1-carboxamide], the IC50 was below 1 nM. The figure for `O=c1cc(C(F)(F)F)nc(-c2c(C(F)(F)F)ccc(CNC(=O)[C@H]3C[C@@H](OCc4ccc(F)c(Cl)c4)C3)c2F)[nH]1` [Example 158, cis-3-[(3-chloro-4-fluorobenzyl)oxy]-N-{2-fluoro-3-[6-oxo-4-(trifluoromethyl)-1,6-dihydropyrimidin-2-yl]-4-(trifluoromethyl)benzyl}cyclobutane-1-carboxamide] is below 1 nM; for `O=c1cc(C(F)(F)F)nc(-c2c(C(F)(F)F)ccc(CNC(=O)[C@H]3C[C@H](OCc4cc(F)cc(Cl)c4)C3)c2F)[nH]1` [Example 159, trans-3-[(3-chloro-5-fluorobenzyl)oxy]-N-{2-fluoro-3-[6-oxo-4-(trifluoromethyl)-1,6-dihydropyrimidin-2-yl]-4-(trifluoromethyl)benzyl}cyclobutane-1-carboxamide] it is below 12 nM. For `O=c1cc(C(F)(F)F)nc(-c2c(C(F)(F)F)ccc(CNC(=O)[C@H]3C[C@@H](OCc4cc(F)cc(Cl)c4)C3)c2F)[nH]1` [Example 160, cis-3-[(3-chloro-5-fluorobenzyl)oxy]-N-{2-fluoro-3-[6-oxo-4-(trifluoromethyl)-1,6-dihydropyrimidin-2-yl]-4-(trifluoromethyl)benzyl}cyclobutane-1-carboxamide], the IC50 was below 1 nM. The figure for `O=c1cc(C(F)F)nc(-c2c(C(F)(F)F)ccc(CNC(=O)[C@H]3C[C@H](OCc4ccccc4Cl)C3)c2F)[nH]1` [Example 161, trans-3-[(2-chlorobenzyl)oxy]-N-{3-[4-(difluoromethyl)-6-oxo-1,6-dihydropyrimidin-2-yl]-2-fluoro-4-(trifluoromethyl)benzyl}cyclobutane-1-carboxamide] is below 1 nM; for `O=c1cc(C(F)F)nc(-c2c(C(F)(F)F)ccc(CNC(=O)[C@H]3C[C@H](OCc4cccc(Cl)c4)C3)c2F)[nH]1` [Example 162, trans-3-[(3-chlorobenzyl)oxy]-N-{3-[4-(difluoromethyl)-6-oxo-1,6-dihydropyrimidin-2-yl]-2-fluoro-4-(trifluoromethyl)benzyl}cyclobutane-1-carboxamide] it is below 1 nM; for `O=c1cc(C(F)F)nc(-c2c(C(F)(F)F)ccc(CNC(=O)[C@H]3C[C@H](OCc4ccc(Cl)cc4)C3)c2F)[nH]1` [Example 163, trans-3-[(4-chlorobenzyl)oxy]-N-{3-[4-(difluoromethyl)-6-oxo-1,6-dihydropyrimidin-2-yl]-2-fluoro-4-(trifluoromethyl)benzyl}cyclobutane-1-carboxamide] it is below 1 nM. As for `O=c1cc(C(F)F)nc(-c2c(C(F)(F)F)ccc(CNC(=O)[C@H]3C[C@H](OCc4ccccc4C(F)(F)F)C3)c2F)[nH]1` [Example 164, trans-N-{3-[4-(difluoromethyl)-6-oxo-1,6-dihydropyrimidin-2-yl]-2-fluoro-4-(trifluoromethyl)benzyl}-3-{[2-(trifluoromethyl)benzyl]oxy}cyclobutane-1-carboxamide], the IC50 was below 1 nM. The figure for `O=c1cc(C(F)F)nc(-c2c(C(F)(F)F)ccc(CNC(=O)[C@H]3C[C@H](OCc4cccc(C(F)(F)F)c4)C3)c2F)[nH]1` [Example 165, trans-N-{3-[4-(difluoromethyl)-6-oxo-1,6-dihydropyrimidin-2-yl]-2-fluoro-4-(trifluoromethyl)benzyl}-3-{[3-(trifluoromethyl)benzyl]oxy}cyclobutane-1-carboxamide] is below 1 nM; for `O=c1cc(C(F)F)nc(-c2c(C(F)(F)F)ccc(CNC(=O)[C@H]3C[C@H](OCc4ccc(C(F)(F)F)cc4)C3)c2F)[nH]1` [Example 166, trans-N-{3-[4-(difluoromethyl)-6-oxo-1,6-dihydropyrimidin-2-yl]-2-fluoro-4-(trifluoromethyl)benzyl}-3-{[4-(trifluoromethyl)benzyl]oxy}cyclobutane-1-carboxamide] it is 8.8 nM; for `O=c1cc(C(F)F)nc(-c2c(C(F)(F)F)ccc(CNC(=O)[C@H]3C[C@H](OCc4ccc(F)cc4F)C3)c2F)[nH]1` [Example 167, trans-3-[(2,4-difluorobenzyl)oxy]-N-{3-[4-(difluoromethyl)-6-oxo-1,6-dihydropyrimidin-2-yl]-2-fluoro-4-(trifluoromethyl)benzyl}cyclobutane-1-carboxamide] it is below 1 nM. For `O=c1cc(C(F)F)nc(-c2c(C(F)(F)F)ccc(CNC(=O)[C@H]3C[C@H](OCc4ccc(Cl)cc4F)C3)c2F)[nH]1` [Example 168, trans-3-[(4-chloro-2-fluorobenzyl)oxy]-N-{3-[4-(difluoromethyl)-6-oxo-1,6-dihydropyrimidin-2-yl]-2-fluoro-4-(trifluoromethyl)benzyl}cyclobutane-1-carboxamide], the IC50 is below 1 nM.

Turning to `O=c1cc(C(F)F)nc(-c2c(C(F)(F)F)ccc(CNC(=O)[C@H]3C[C@H](OCc4ccc(F)c(F)c4)C3)c2F)[nH]1` [Example 169, trans-3-[(3,4-difluorobenzyl)oxy]-N-{3-[4-(difluoromethyl)-6-oxo-1,6-dihydropyrimidin-2-yl]-2-fluoro-4-(trifluoromethyl)benzyl}cyclobutane-1-carboxamide], the IC50 was below 1 nM. Under `O=c1cc(C(F)F)nc(-c2c(C(F)(F)F)ccc(CNC(=O)[C@H]3C[C@H](OCc4cc(F)cc(F)c4)C3)c2F)[nH]1` [Example 170, trans-3-[(3,5-difluorobenzyl)oxy]-N-{3-[4-(difluoromethyl)-6-oxo-1,6-dihydropyrimidin-2-yl]-2-fluoro-4-(trifluoromethyl)benzyl}cyclobutane-1-carboxamide] stands 1.3 nM. The figure for `O=c1cc(C(F)F)nc(-c2c(C(F)(F)F)ccc(CNC(=O)[C@H]3C[C@H](OCc4cccc(F)c4)C3)c2F)[nH]1` [Example 171, trans-N-{3-[4-(difluoromethyl)-6-oxo-1,6-dihydropyrimidin-2-yl]-2-fluoro-4-(trifluoromethyl)benzyl}-3-[(3-fluorobenzyl)oxy]cyclobutane-1-carboxamide] is below 1 nM. Consider `O=c1cc(C(F)F)nc(-c2c(C(F)(F)F)ccc(CNC(=O)[C@H]3C[C@H](OCc4cccc(F)c4F)C3)c2F)[nH]1` [Example 172, trans-3-[(2,3-difluorobenzyl)oxy]-N-{3-[4-(difluoromethyl)-6-oxo-1,6-dihydropyrimidin-2-yl]-2-fluoro-4-(trifluoromethyl)benzyl}cyclobutane-1-carboxamide], for which the IC50 was below 1 nM. Under `O=c1cc(C(F)F)nc(-c2c(C(F)(F)F)ccc(CNC(=O)[C@H]3C[C@H](OCc4ccc(F)cc4Cl)C3)c2F)[nH]1` [Example 173, trans-3-[(2-chloro-4-fluorobenzyl)oxy]-N-{3-[4-(difluoromethyl)-6-oxo-1,6-dihydropyrimidin-2-yl]-2-fluoro-4-(trifluoromethyl)benzyl}cyclobutane-1-carboxamide] stands below 1 nM; under `O=c1cc(C(F)F)nc(-c2c(C(F)(F)F)ccc(CNC(=O)[C@H]3C[C@H](OCc4cccc(Cl)c4F)C3)c2F)[nH]1` [Example 174, trans-3-[(3-chloro-2-fluorobenzyl)oxy]-N-{3-[4-(difluoromethyl)-6-oxo-1,6-dihydropyrimidin-2-yl]-2-fluoro-4-(trifluoromethyl)benzyl}cyclobutane-1-carboxamide], below 1 nM. Under `O=c1cc(C(F)F)nc(-c2c(C(F)(F)F)ccc(CNC(=O)[C@H]3C[C@H](OCc4cc(Cl)ccc4F)C3)c2F)[nH]1` [Example 175, trans-3-[(5-chloro-2-fluorobenzyl)oxy]-N-{3-[4-(difluoromethyl)-6-oxo-1,6-dihydropyrimidin-2-yl]-2-fluoro-4-(trifluoromethyl)benzyl}cyclobutane-1-carboxamide] stands below 1 nM; under `O=c1cc(C(F)F)nc(-c2c(C(F)(F)F)ccc(CNC(=O)[C@H]3C[C@H](OCc4ccc(F)c(Cl)c4)C3)c2F)[nH]1` [Example 176, trans-3-[(3-chloro-4-fluorobenzyl)oxy]-N-{3-[4-(difluoromethyl)-6-oxo-1,6-dihydropyrimidin-2-yl]-2-fluoro-4-(trifluoromethyl)benzyl}cyclobutane-1-carboxamide], below 1 nM; under `O=c1cc(C(F)F)nc(-c2c(C(F)(F)F)ccc(CNC(=O)[C@H]3C[C@H](OCc4cc(F)cc(Cl)c4)C3)c2F)[nH]1` [Example 177, trans-3-[(3-chloro-5-fluorobenzyl)oxy]-N-{3-[4-(difluoromethyl)-6-oxo-1,6-dihydropyrimidin-2-yl]-2-fluoro-4-(trifluoromethyl)benzyl}cyclobutane-1-carboxamide], 10 nM.

As for `Cc1cc(=O)[nH]c(-c2c(C(F)(F)F)ccc(CNC(=O)[C@H]3C[C@H](OCc4ccccc4Cl)C3)c2F)n1` [Example 178, trans-3-[(2-chlorobenzyl)oxy]-N-[2-fluoro-3-(4-methyl-6-oxo-1,6-dihydropyrimidin-2-yl)-4-(trifluoromethyl)benzyl]cyclobutane-1-carboxamide], the IC50 was below 1 nM.

The values are drawn from patent publication US20250340557A1, “PYRIMIDINE DERIVATIVE” (ASKA PHARMACEUTICAL CO., LTD., priority 2022, published 2025).
